The target of data set [1] is T1, V-ATPase (Homo sapiens, UniProt P27449).
T1 construct: endogenous in cells; host or cells: primary CD4+ T cells (HIV ΔGPE infected) from donor PBMCs
Kind of data set: Lysosomal acidification (Lysotracker mean fluorescence intensity) as indicator of V-ATPase activity in primary CD4+ T cells. In kind it is cell-based. The protocol: (§1) Inhibition of HIV-Nef was measured by assessing its capacity to downmodulate MHC-I HLA-A2 on the surface of primary CD4+ T cells 24-hours after treatment with each compound. V-ATPase inhibition was assessed at the same time point using lysosomal acidification as an indicator of V-ATPase activity. This was measured using a flow cytometric assay that quantified Lysotracker mean fluorescence intensity as previously described (Painter et al., 2020). Cell viability was measured at 24-hour and 72-hour time points using a previously described flow cytometric assay (Painter et al., 2020).
(§2) Anonymized leukocytes isolated by apheresis were obtained from New York Blood Center and peripheral blood mononuclear cells (PBMCs) were isolated by Ficoll-Paque Plus (17144002; GE Healthcare) centrifugation using SepMate tubes (85450; StemCell Technologies) according to the manufacturers protocol. […] Then, 20-24 hours post-PHA activation, 15 mL of R10/PHA medium is removed and replaced with 5 mL of R10+100u/mL Recombinant Human IL-2 (202|L010; R&D Systems). 48 hours after IL-2 stimulation, primary CD4^+ T cells were infected via spinoculation with previously described HIV ΔGPE construct.
(§3) 48 hours after spinoculation, cells were pooled and plated in flat bottom 96-well plate. […] Compounds were thawed at room temperature and diluted in R10 medium to 2× starting concentration.
(§4) All ΔGPE infected cells were collected 24 hours after treatment.
(§5) All statistical analyses were performed using GraphPad Prism software. Curves were generated using GraphPad Prism software using [Inhibitor] vs. response with variable slope (four parameters).

A short description of data set [2]: in vitro. Conditions: human. The protocol: as §1, §2, §3, §4
(§6) All Mock cells were collected 72 hours after treatment.
as §5

In data set [3] the test system is primary CD4+ T cells. Kind of data set: in vitro. To be noted: for Viability:Nef (therapeutic window separating Nef IC50 and TC50): ratio TC50 to Nef IC50. The method, then:
as §1, §2, §3, §4, §6, §5

T1 sequence (P27449 whole entry, looked up): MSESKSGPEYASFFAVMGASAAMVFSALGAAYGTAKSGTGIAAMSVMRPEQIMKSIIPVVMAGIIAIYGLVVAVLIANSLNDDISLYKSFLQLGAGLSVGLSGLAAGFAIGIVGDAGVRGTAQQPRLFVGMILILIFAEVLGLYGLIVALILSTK

`C/C=C/[C@H]1O[C@@](O)([C@@H](C)[C@H](O)[C@H](C)[C@H]2OC(=O)/C(OC)=C/C(C)=C/[C@@H](C)[C@@H](O)[C@@H](C)[C@@H](OC(C)=O)[C@H](C)C/C(C)=C/C=C/[C@@H]2OC)C[C@@H](O[C@@H]2C[C@H](OC(C)=O)[C@@H](OC(N)=O)[C@H](C)O2)[C@@H]1C` [Compound 13, 3′,9-Diacetyl CMB] registered an IC50 in data set [1] of 38 nM. Besides, the CC50 in data set [2] was 8 nM. Further, the “Viability:Nef (therapeutic window separating Nef IC50 and TC50)” value (from here on “Viability:Nef”) in data set [3] is given as 8.8 fold.
The like results for `C/C=C/[C@H]1O[C@@](O)([C@@H](C)[C@H](O)[C@H](C)[C@H]2OC(=O)/C(OC)=C/C(C)=C/[C@@H](C)[C@@H](O)[C@@H](CC)[C@@H](O)[C@H](C)C/C(C)=C/C=C/[C@@H]2OC)C[C@@H](O[C@@H]2C[C@H](OC(C)=O)[C@@H](OC(N)=O)[C@H](C)O2)[C@@H]1C` [Compound 14, 3′-Acetyl CMA] were, in that order, 3.7 nM, 1.6 nM and 8.5 fold.
In the same order, the values of `C/C=C/[C@H]1O[C@@](O)([C@@H](C)[C@H](O)[C@H](C)[C@H]2OC(=O)/C(OC)=C/C(C)=C/[C@@H](C)[C@@H](O)[C@@H](CC)[C@@H](OC(C)=O)[C@H](C)C/C(C)=C/C=C/[C@@H]2OC)C[C@@H](O[C@@H]2C[C@H](OC(C)=O)[C@@H](OC(N)=O)[C@H](C)O2)[C@@H]1C` [Compound 15, 3′,9-diacetyl CMA] are 7.9 nM, 3.9 nM and 11 fold.
Take `C[C@@H]1C[C@H](C)C[C@H](C)[C@@H](O)CC(=O)O[C@H]([C@@H]2CCC[C@H]2C(=O)O)C/C=C/C=C(/C#N)[C@H](O)[C@@H](C)C1` [Compound S2, Borrelidin, reference compound]: the IC50 in data set [1] is 165 nM. The same compound returned a CC50 at 72 h in data set [2] (mock-infected primary CD4+ T cells) of 91 nM. Further, in data set [3] (24-hour time point), the “Toxicity at 24 hours” value is given as “toxic at 24-hours”. For the same compound, in data set [3], the “Viability:Nef” value was determined as 2.0 fold.
The compound `CO/C1=C\C(C)=C\[C@@H](C)[C@@H](O)[C@@H](C)C/C(C)=C/C=C/[C@H](OC)[C@@H]([C@@H](C)[C@@H](O)[C@H](C)[C@@]2(OC)C[C@@H](O)[C@H](C)C(C(C)C)O2)OC1=O` (stereo partly shown) [Compound S4, Bafilomycin A2] registered an IC50 in data set [1] of 24 nM. Moreover, the CC50 in data set [2] stood at 13 nM. Further, the “Viability:Nef” value in data set [3] was found to be 1.2 fold.
The like results for `CO/C1=C\C(C)=C\[C@@H](C)[C@@H](O)[C@@H](C)C/C(C)=C/C=C/[C@H](OC)[C@@H]([C@@H](C)[C@@H](O)[C@H](C)[C@H]2C[C@@H](OC)[C@H](C)[C@@H](C(C)C)O2)OC1=O` [Compound S6] were, in that order, 52 nM, 28 nM and 1.4 fold.
For the compound `CO/C1=C\C(C)=C\[C@@H](C)[C@@H](O)[C@@H](C)C/C(C)=C/C=C/[C@H](OC)[C@@H]([C@@H](C)[C@@H](O)[C@H](C)[C@@]2(O)C[C@@H](OC(C)=O)[C@H](C)C(C(C)C)O2)OC1=O` (stereo partly shown) [Compound S9], in data set [1], the IC50 is 23 nM. The CC50 in data set [2] worked out at 10 nM. The “Viability:Nef” value in data set [3] came out at 2.4 fold.
The like results for `CCCCCCCCC(=O)O[C@@H]1C[C@](O)([C@@H](C)[C@H](O)[C@H](C)[C@H]2OC(=O)/C(OC)=C/C(C)=C/[C@@H](C)[C@@H](O)[C@@H](C)C/C(C)=C/C=C/[C@@H]2OC)O[C@H](C(C)C)[C@H]1C` [Compound S11] were, in that order, 150 nM, 140 nM and 1.1 fold.
For the compound `C=C/C=C/C(=O)O[C@@H]1C[C@](O)([C@@H](C)[C@H](O)[C@H](C)[C@H]2OC(=O)/C(OC)=C/C(C)=C/[C@@H](C)[C@@H](O)[C@@H](C)C/C(C)=C/C=C/[C@@H]2OC)O[C@H](C(C)C)[C@H]1C` [Compound S12], in data set [1], the IC50 came out at 24 nM. In addition, the CC50 in data set [2] is 22 nM. In data set [3], the “Viability:Nef” value was 1.4 fold.
On to `COC1=CC(C)=CC(C)C(O)C(C)CC(C)=CC=CC(OC)C(C(C)C(O)C(C)C2(O)CC(OC3OC(C)C(O)C(O)C3OC)C(C)C(C(C)C)O2)OC1=O` (stereo not shown) [Compound S14, Leucanicidin, reference compound], for which, in data set [1], the IC50 came to 2.5 nM. The same compound returned a CC50 in data set [2] of 1.4 nM. The “Viability:Nef” value in data set [3] is on record as 1.3 fold.
`CC=CC=CC1OC(O)(C(C)C(O)C(C)C2OC(=O)C(OC)=CC(C)=CC(C)C(O)C(C)CC(C)=CC=CC2OC)CC(OC2CC(O)C(O)C(C)O2)C1C` (stereo not shown) [Compound S15, PC-766B, reference compound] came in with an IC50 in data set [1] of 2.5 nM. The compound also had a CC50 in data set [2] of 1.3 nM. Moreover, the “Viability:Nef” value in data set [3] is listed as 1.1 fold.
In the same order, the values of `CO/C1=C\C(C)=C\[C@@H](C)[C@@H](OC(C)=O)[C@@H](C)C/C(C)=C/C=C/[C@H](OC)[C@@H]([C@@H](C)[C@@H](O)[C@H](C)[C@@]2(O)C[C@@H](OC(C)=O)[C@H](C)C(C(C)C)O2)OC1=O` (stereo partly shown) [Compound S19] are 530 nM, 440 nM and 1.8 fold.
In the same order, the values of `C#CCCC(=O)O[C@@H]1C[C@H]([C@@H](C)[C@H](O)[C@H](C)[C@H]2OC(=O)/C(OC)=C/C(C)=C/[C@@H](C)[C@@H](O)[C@@H](C)C/C(C)=C/C=C/[C@@H]2OC)O[C@H](C(C)C)[C@H]1C` [Compound S28] are 61 nM, 36 nM and 1.7 fold.
The like results for `C/C=C/CC(=O)O[C@@H]1C[C@](O)([C@@H](C)[C@H](O)[C@H](C)[C@H]2OC(=O)/C(OC)=C/C(C)=C/[C@@H](C)[C@@H](O)[C@@H](C)C/C(C)=C/C=C/[C@@H]2OC)OC(C(C)C)[C@H]1C` (stereo partly shown) [Compound S29] were, in that order, 47 nM, 39 nM and 1.6 fold.
In data set [1], `C/C=C/[C@H]1O[C@@](O)([C@@H](C)[C@H](O)[C@H](C)[C@H]2OC(=O)/C(OC)=C/C(C)=C/[C@@H](C)[C@@H](O)[C@@H](CC)[C@@H](O)[C@H](C)C/C(C)=C/C=C/[C@@H]2OC)C[C@@H](O[C@@H]2C[C@H](OC(C)=O)[C@@H](OC(C)=O)[C@H](C)O2)[C@@H]1C` [Compound S48, 3′,4-diacetyl CMC] showed an IC50 of 3.1 nM. In addition, the CC50 in data set [2] came out at 1.3 nM. Further, the “Viability:Nef” value in data set [3] came out at 1.8 fold.
In the same order, the values of `C/C=C/[C@H]1O[C@@](O)([C@@H](C)[C@H](O)[C@H](C)[C@H]2OC(=O)/C(OC)=C/C(C)=C/[C@@H](C)[C@@H](O)[C@@H](CC)[C@@H](OC(C)=O)[C@H](C)C/C(C)=C/C=C/[C@@H]2OC)C[C@@H](O[C@@H]2C[C@H](OC(C)=O)[C@@H](OC(C)=O)[C@H](C)O2)[C@@H]1C` [Compound S49, 3′,4′,9-triaceyl CMC] are 11 nM, 4.5 nM and 1.8 fold.
The like results for `C/C=C/[C@H]1O[C@@](O)([C@@H](C)[C@H](O)[C@H](C)[C@H]2OC(=O)/C(OC)=C/C(C)=C/[C@@H](C)[C@@H](O)[C@@H](CC)[C@@H](O)[C@H](C)C/C(C)=C/C=C/[C@@H]2OC)C[C@@H](OC(C)=O)[C@@H]1C` [Compound S50, 23-Acetyl CMF] were, in that order, 6.1 nM, 6.1 nM and 5.8 fold.

For the origin of these results see patent US20260232713A1, “PLECOMACROLIDE DERIVATIVES FOR MHC-I NEF DOWNMODULATION” (priority 2022, published 2026).
